# Where “and” joins values, the source holds several entries; their conditions need not be identical. Equal values may be shown once. Read-outs that look alike come from different tables or passages of the source.
# Assays:
# [1] = system: human colorectal adenocarcinoma (DLD-1) cells; assay: MTT cytotoxicity assay, DLD-1; format: cell-based; conditions: 48 h, means of three independent experiments
# From the text: (§1) The cells studied were obtained from the American Type Culture Collection (ATCC, Manassas, VA), and included human colorectal adenocarcinoma (DLD-1), cervix carcinoma (HeLa), breast adenocarcinoma (MDA-MB-231), colon adenocarcinoma (HT-29), endometrial adenocarcinoma (ECC-1), prostate cancer (DU-145 and PC-3), normal embryonic kidney (HEK-293), normal prostate epithelium (PNT-1A), and normal retinal pigment epithelium (ARPE-19) cells. As recommended by ATCC, cells were subjected to propagation using DMEM-F12 and RPMI-1640 media, with supplements 10% fetal bovine serum, L-glutamine (2 mM), penicillin (100 U/mL) and streptomycin ([…]) in a humidified atmosphere (5% CO2) at 37 °C. When the cultures reached 70–80% confluence, the cells were harvested using 0.25% trypsin (Sigma).
# (§2) Cytotoxic activities were based on the reduction of (3–(4,5-dimethylthiazol-2-yl)-2,5-diphenyltetrazolium bromide) (MTT) by mitochondrial dehydrogenase of viable cells to give a blue formazan product which can be measured spectrophotometrically by UV–Vis measurements. MTT colorimetric assays were performed using 96 well plates. The cells were seeded in a 96 well plate at concentration 5.0 × 10^4 cells/well and incubated at 37 °C for 24 h. After treatment with various concentrations of the test compound (1, 5, 10, 25, 50, 100 and 200 μM), the cells were incubated for an additional 48 h at 37 °C. After incubation, the medium was removed, and the cells in each well were incubated with 100 μL MTT solution (5 mg/mL) for 4 h at 37 °C. MTT solutions were then discarded, and 100 μL DMSO were added to dissolve insoluble formazan crystals. Optical densities were measured at 570 nm (Varioskan Flash Multimode Reader, Thermo, Waltham, MA). Data were obtained from triplicate wells. Cytotoxic effects were determined in reference to negative controls (vehicle treated cells). Cytotoxicity was expressed as the mean percentage increase relative to the unexposed control (mean ± SD). All statistical analyses were performed using SPSS package program for Windows (Version 20, Chicago, IL). Control values were set to 0% cytotoxicity. Cytotoxicity data, where appropriate, were fitted to sigmoidal curves and a four-parameter logistic model was used to calculate the IC50 values, the concentration of material causing 50% inhibition, compared to the untreated controls. 5-Fluorouracil (5-FU) was also used as a control agent[21]^,[22].
# [2] = system: cervix carcinoma (HeLa) cells; assay: MTT cytotoxicity assay, HeLa; format: cell-based, human; conditions: for IC50: 48 h, cancer cell, MTT, means of three independent experiments
# From the text: as §1, §2
# [3] = system: breast adenocarcinoma (MDA-MB-231) cells; assay: MTT cytotoxicity assay, MDA-MB-231; format: cell-based, human; conditions: 48 h, means of three independent experiments
# From the text: as §1, §2
# [4] = system: colon adenocarcinoma (HT-29) cells; assay: MTT cytotoxicity assay, HT-29; format: cell-based, human; conditions: 48 h, means of three independent experiments
# From the text: as §1, §2
# [5] = system: endometrial adenocarcinoma (ECC-1) cells; assay: MTT cytotoxicity assay, ECC-1; format: cell-based, human; conditions: 48 h, means of three independent experiments
# From the text: as §1, §2
# [6] = system: prostate cancer (DU-145) cells; assay: MTT cytotoxicity assay, DU-145; format: cell-based, human; conditions: for IC50: MTT, 48 h
# From the text: as §1, §2
# [7] = system: prostate cancer (PC-3) cells; assay: MTT cytotoxicity assay, PC-3; format: cell-based, human; conditions: 48 h, means of three independent experiments
# From the text: as §1, §2
# [8] = system: normal embryonic kidney (HEK-293) cells; assay: MTT cytotoxicity assay, HEK-293; format: cell-based, human; conditions: 48 h, means of three independent experiments
# From the text: as §1, §2
# [9] = system: normal prostate epithelium (PNT-1A) cells; assay: MTT cytotoxicity assay, PNT-1A; format: cell-based, human; conditions: 48 h
# From the text: as §1, §2
# [10] = system: normal retinal pigment epithelium (ARPE-19) cells; assay: MTT cytotoxicity assay, ARPE-19; format: cell-based, human; conditions: 48 h, means of three independent experiments
# From the text: as §1, §2
# [11] = Homo sapiens, DLD-1, cancer cell
# [12] = Homo sapiens, MDA-MB-231, cancer cell
# [13] = Homo sapiens, HT-29, cancer cell
# [14] = Homo sapiens, ECC-1, cancer cell
# [15] = Homo sapiens, DU-145, cancer cell, means of three independent experiments, read-out: IC50 DU-145
# [16] = Homo sapiens, PC-3, cancer cell
# [17] = Homo sapiens, HEK293, normal cell
# [18] = Homo sapiens, PNT1A, normal cell, means of three independent experiments, read-out: IC50 PNT-1A
# [19] = Homo sapiens, ARPE-19, normal cell
# [20] = cancer cell, means of three independent experiments, read-out: IC50 DU-145
# [21] = normal cell, means of three independent experiments, read-out: IC50 PNT-1A
Compound,"IC50 [1, 11] [µM]","IC50 ([2]; Homo sapiens, HeLa) [µM]","IC50 [3, 12] [µM]","IC50 [4, 13] [µM]","IC50 [5, 14] [µM]","IC50 [6, 15] [µM]","IC50 [7, 16] [µM]","IC50 [8, 17] [µM]","IC50 [9, 18] [µM]","IC50 [10, 19] [µM]",IC50 ([1]; cancer cell) [µM],IC50 [2],IC50 ([3]; cancer cell) [µM],IC50 ([4]; cancer cell) [µM],IC50 ([5]; cancer cell) [µM],"IC50 [6, 20] [µM]",IC50 ([7]; cancer cell) [µM],IC50 ([8]; normal cell) [µM],"IC50 [9, 21] [µM]",IC50 ([10]; normal cell) [µM],other results
"NS(=O)(=O)c1cccc(N/N=N/c2ccc(F)cc2)c1 [Compound L1, 3–(3-(4-fluorophenyl)triaz-1-en-1-yl) benzenesulfonamide]",140 ± 11,179 ± 16,104 ± 28.2,79.4 ± 15.4,239 ± 27.5,29 ± 2.9,168 ± 18.5,132 ± 16.4,195 ± 23.5,279 ± 33.8,,,,,,,,,,,"IC50 ([6]; Homo sapiens, DU-145, unit given as M, read-out: IC50 prostate cancer (DU-145)): 29 µM; selectivity between prostate cancer cell line (DU-145) and normal prostate cells (PNT1-A) ([6]; from IC50 values DU-145 vs PNT1-A): high selectivity; IC50 ([9]; Homo sapiens, PNT1A, unit given as M, read-out: IC50 normal prostate cells (PNT1-A)): 195 µM"
"COc1ccc(/N=N/Nc2cccc(S(N)(=O)=O)c2)cc1 [Compound L2, 3–(3-(4-methoxyphenyl)triaz-1-en-1-yl)]",223 ± 8.3,768 ± 6.5,144 ± 2.4,265 ± 30,> 300,154 ± 25.6,171 ± 20.5,146 ± 13.4,> 300,> 300,,,,,,,,,,,
CC(=O)[O][Cu-]1([O]C(C)=O)[N](c2cccc(S(N)(=O)=O)c2)N=[N+]1c1ccc(F)cc1 [Compound L1-Cu],,,,,,,,,,,47.1 ± 4.7,5.02 µM and 5 µM,117 ± 14.2,199 ± 24.3,26.2 ± 2.6,105 ± 13.5,102 ± 10.2,68.8 ± 8.7,76.5 ± 8.5,119 ± 13.5,
CC(=O)[O][Ag][N](N=Nc1cc(C)cc(C)c1)c1cccc(S(N)(=O)=O)c1 [Compound L5-Ag],,,,,,,,,,,111 ± 9,9.61 µM and 9.6 µM,148 ± 19.5,162 ± 16.1,136 ± 13.5,100 ± 10.1,112 ± 13.4,30.5 ± 4.5,111 ± 11,109 ± 11,
CC(=O)[O][Ag][N](N=Nc1ccc(C(=O)O)cc1)c1cccc(S(N)(=O)=O)c1 [Compound L3-Ag],,,,,,,,,,,3.3 ± 0.3,3.4 ± 0.2 µM,9.8 ± 0.9,10.1 ± 3.1,16.2 ± 1.6,4.8 ± 0.4,5.1 ± 0.5,9.9 ± 0.9,9.2 ± 0.9,9.5 ± 0.9,
"Cc1cc(C)cc(NN=Nc2cccc(S(N)(=O)=O)c2)c1 [Compound L5, 3-(3-(3,5-dimethylphenyl)triaz-1-en-1-yl)benzenesulfonamide]",224 ± 12.4,65.1 ± 4.5,144 ± 18.6,112 ± 16.5,132 ± 13.1,97.8 ± 9.7,131 ± 12.4,103 ± 10.2,177 ± 20.5,> 300,,,,,,,,,,,
CC(=O)[O][Cu-]1([O]C(C)=O)[N](c2cccc(S(N)(=O)=O)c2)N=[N+]1c1cc(C)cc(C)c1 [Compound L5-Cu],,,,,,,,,,,58.8 ± 3.9,15.2 ± 1 µM,26 ± 2.5,84.4 ± 8.4,97.6 ± 9.7,32.4 ± 3.2,79.2 ± 8.5,36.3 ± 3.6,46.4 ± 4.6,84.3 ± 8.4,
"COc1ccc(/N=N/Nc2cccc(S(N)(=O)=O)c2)cc1OC [Compound L4, 3–(3-(3,4-dimethoxyphenyl)triaz-1-en-1-yl) benzenesulfonamide]",> 300,> 300,155 ± 2.6,> 300,> 300,182 ± 23.4,299 ± 32.3,> 300,237 ± 26.8,> 300,,,,,,,,,,,
COc1ccc(N=N[N]([Ag][O]C(C)=O)c2cccc(S(N)(=O)=O)c2)cc1 [Compound L2-Ag],,,,,,,,,,,31.6,2.8 ± 0.1 µM,30.3 ± 3,24.9 ± 2.5,29.1,18.6,28.2,17.8 ± 1.7,17.5 ± 17.5,22 ± 10.2,"fold increased potency than the reference drug 5-FU ([2]; HeLa cells, ratio of IC50 values): 6.84 fold"
COc1ccc(N=N[N]([Ag][O]C(C)=O)c2cccc(S(N)(=O)=O)c2)cc1OC [Compound L4-Ag],,,,,,,,,,,173 ± 10.3,139 ± 28 µM,> 300,241 ± 28.5,104 ± 10.3,237 ± 28.5,137 ± 15.8,5.5 ± 0.6,139 ± 16.5,285 ± 30.5,
COc1ccc([N+]2=N[N](c3cccc(S(N)(=O)=O)c3)[Cu-]2([O]C(C)=O)[O]C(C)=O)cc1OC [Compound L4-Cu],,,,,,,,,,,58.4 ± 5.8,116 ± 9.2 µM,206 ± 25.1,199 ± 22.5,308 ± 34.2,160 ± 18,297 ± 32.4,197 ± 23.5,125 ± 14.8,105 ± 13.5,
CC(=O)[O][Ag][N](N=Nc1ccc(F)cc1)c1cccc(S(N)(=O)=O)c1 [Compound L1-Ag],,,,,,,,,,,279 ± 12.9,> 300 µM,96.8 ± 9.6,186 ± 16.5,207 ± 25.6,137 ± 16.5,,> 300,210 ± 20.9,> 300,
COc1ccc([N+]2=N[N](c3cccc(S(N)(=O)=O)c3)[Cu-]2([O]C(C)=O)[O]C(C)=O)cc1 [Compound L2-Cu],,,,,,,,,,,42.7 ± 3.3,2.08 µM and 2.1 µM,50 ± 2.4,94.9 ± 9.4,39.5 ± 2.5,116 ± 14.6,65.3 ± 8.5,159 ± 19.4,95.1 ± 11.1,132 ± 15.6,
"NS(=O)(=O)c1cccc(N/N=N/c2ccc(C(=O)O)cc2)c1 [Compound L3, 4–(3–(3-sulfamoylphenyl)triaz-2-en-1-yl) benzoic acide]",> 300,> 300,> 300,> 300,197 ± 23.5,186 ± 20.6,> 300,> 300,> 300,> 300,,,,,,,,,,,
CC(=O)[O][Cu-]1([O]C(C)=O)[N](c2cccc(S(N)(=O)=O)c2)N=[N+]1c1ccc(C(=O)O)cc1 [Compound L3-Cu],,,,,,,,,,,65.2 ± 2.5,63.9 ± 4.3 µM,48.3 ± 2.5,205 ± 20.3,362 ± 38.1,58.3 ± 6.4,196 ± 22.6,135 ± 15.6,120 ± 13.5,> 300,
"O=c1[nH]cc(F)c(=O)[nH]1 [Compound 5-FU, 5-Fluorouracil, reference compound]",50.2 ± 21,19.2,22.4 ± 2.5,24.2 ± 2.4,30.6 ± 3.5,37.3 ± 5.8,45.5 ± 4.5,65.3 ± 8.6,142 ± 18.6,75.3 ± 7.5,,19.2 ± 1.2 µM,,,,,,,,,

# Source: PMC6211257, “Synthesis and cytotoxic activities of novel copper and silver complexes of 1,3-diaryltriazene-substituted sulfonamides” (Journal of Enzyme Inhibition and Medicinal Chemistry, 2018)
